Data on three molecules can be found in patent publication US7060292B2, “Lipid structures and uses thereof” (GESynthesis, Inc., priority 2001, dated 2006).

For series [1] the following is noted: Stein 1985; cited from earlier work.
A short description of series [2]: Movement across bilayer into vesicle interior containing cyclodextrin-esterified DPH (permeability coefficient). It counts as physicochemical.
Protocol: Calculation of permeability coefficient (P). The rate constant (kn) for and maximum extent of (Δm) fluorescence change are determined using direct curve fitting procedures (nonlinear regression) assuming that test substance movement is a simple first order process. Deviation from first-order kinetics may be encountered when test compound movement into, out of, or across the membrane is carrier- or channel-mediated or the drug concentration approaches saturation. […] In general an increasing signal takes the form: Et=Eb+En(1−e^−k^n^t)+En+1(1−e^−k^n+1^t)+. . . and a decreasing signal takes the form: Et=Eb+Ene^−k^n^t+En+1e^−k^n+1^t+. . . , where Et is the fluorescence of the system at time t, En is the fluorescence of the system either at time zero (for a decreasing signal) or infinity (for an increasing signal), Eb is the system fluorescence insensitive to addition or removal of test compound, t is time, and kn is the rate constant describing the rate of fluorescence decrease or increase. If more than one first order process is detected, the second or third processes are characterized by En+1, and kn+1 and by En+2 and kn+2, respectively.
The half-life for test compound movement across the bilayer is computed from the rate constant as t1/2=0.693/kn.
The molar flux (v) of a test compound across the membrane is computed as […]
Series [3] is described as follows: pKa and ionization of test compounds. The series is classed as physicochemical.

`CCO` [ethanol]: the “diffusion coefficient Dm, reported value” in series [1] is on record as 1.5×10^−7 cm^−2s^−1. The “rate constant kn for uptake into vesicle interior” value in series [2] (10 μg lipid vesicles in 2 ml buffer, 10 μl ethanol) is 62.9 per second. In addition, the “diffusion coefficient Dm” value in series [2] (computed from P and K assuming λ=40×10^−8 cm) was 3.9×10^−7 cm^−2·s^−1.

Turning to `CCCCCC(=O)O` [hexanoic acid], the percentage ionized was ~13% in series [3] (pH 4.0) and > 99% in series [3] (pH 7.0).

With `CCCCCCO` [hexanol], the ionization result in series [3] (pH 4.0 and pH 7.0) is “not substantially ionized at either pH”.
